Test [1] has as its system CD4 positive naive T cells (differentiation into Th17 cells). As to the kind of experiment: Mouse Th17 cell differentiation induction test. Particulars: 96 h; test compound 10 μM; BALB/c mouse CD4 positive naive T cells; 4 days; ELISA; read-out: inhibitory rate (IL-17A in culture supernatant, Th17 differentiation). In kind it is cell-based. The protocol: CD4 positive naive T cells were collected from the spleen cells of BALB/c mice (female, 8-11w) using CD4+CD62L+ T Cell Isolation kit II (Miltenyi Biotec). The CD4 positive naive T cells were plated in a 96 well plate (3×10^5 cells/well), stimulated (37° C. for culture) with anti-mouse CD3ε antibody (10 μg/mL, solid phase) and anti-CD28 antibody (5 μg/mL) for 4 days in the presence of anti-IFN-γ antibody, anti-IL-4 antibody, anti-IL-2 antibody, IL-6, TGF-β and IL-23 to allow for differentiation into Th17 cells. The compound was dissolved in DMSO and then added. The cells were cultured under these conditions for 4 days, the concentration of IL-17A in the culture supernatant obtained by centrifugation was measured by ELISA, and differentiation of the Th17 cells was evaluated.

The target in test [2] is T1, RORγt (Homo sapiens, UniProt P51449).
T1 sequence (P51449 1-497 isoform P51449-2): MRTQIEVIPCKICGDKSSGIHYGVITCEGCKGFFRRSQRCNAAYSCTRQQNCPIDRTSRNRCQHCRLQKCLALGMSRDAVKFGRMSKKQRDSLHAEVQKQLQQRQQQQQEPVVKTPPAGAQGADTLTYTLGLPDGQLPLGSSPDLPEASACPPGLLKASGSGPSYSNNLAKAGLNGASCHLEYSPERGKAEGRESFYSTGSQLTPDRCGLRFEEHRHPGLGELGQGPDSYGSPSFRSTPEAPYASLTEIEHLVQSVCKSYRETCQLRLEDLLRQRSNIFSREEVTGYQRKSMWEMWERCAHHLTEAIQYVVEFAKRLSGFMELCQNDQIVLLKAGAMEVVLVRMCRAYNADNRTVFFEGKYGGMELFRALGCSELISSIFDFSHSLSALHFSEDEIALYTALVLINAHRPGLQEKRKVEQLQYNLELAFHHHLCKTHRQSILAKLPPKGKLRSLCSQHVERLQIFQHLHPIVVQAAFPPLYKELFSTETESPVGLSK
Description: RORγt binding test (TR-FRET, fluorescent-labeled cholesterol). To be noted: test compound 1 μM, histidine-tagged RORγt, read-out: binding inhibitory rate of fluorescent-labeled cholesterol to RORγt. The protocol: The binding activity of the test compound to RORγt was measured by a time resolved fluorescence resonance energy transfer method (TR-FRET) utilizing histidine-tagged RORγt, fluorescent-labeled cholesterol (BODIPY-cholesterol, AVIVA), and terbium-labeled anti-histidine tag antibody (Invitrogen). First, a test compound diluted with an assay buffer (20 mM Tris-HCl (pH 7.5), 100 mM NaCl, 1 mM DTT, 0.1% BSA) was added to a 384 well plate by 3 μL. Then, RORγt diluted with an assay buffer to 240 nM was added by 3 μL, after which fluorescent-labeled cholesterol diluted with the assay buffer to 12 μM was added by 3 μL, and the mixture was stood at room temperature for 20 min. Thereafter, a terbium-labeled anti-histidine tag antibody diluted with the assay buffer to 8 nM was added by 3 μL. The mixture was stood at room temperature for 20 min, and fluorescence intensity (excitation wavelength 320 nm, fluorescence wavelength 520 nm, delay time 100 microseconds) was measured by Envision (PerkinElmer).
The results (binding inhibitory rate of fluorescent-labeled cholesterol to RORγt at test compound 1 μM) measured by the above-mentioned method are shown in Table 2.

Test [3] concerns the target T1, RORγt. Description: Cofactor recruitment test (Alpha Screen, biotinylated SRC-1 peptide). In kind it is biochemical. To be noted: test compound 1 μM, RORγt and biotinylated SRC-1 peptide, read-out: signal value inhibitory rate. The protocol: Cofactor recruitment test was performed by Alpha Screen (Histidine Detection Kit, PerkinElmer) method. First, a test compound was diluted with an assay buffer (50 mM Tris-HCl (pH 7.5), 50 mM KCl, 1 mM DTT, 0.1% BSA) and added to a 384 well plate by 5 μL. Then, RORγt diluted with an assay buffer to 125 nM was added by 10 μL each, after which solutions of 25 nM biotinylated SRC-1 peptide (biotin-[…]), 12.5 μg/mL acceptor beads and 12.5 μg/mL donor beads prepared with the assay buffer were added by 10 μL each. The mixture was stood in a dark place for 1 hr, and the signal value was measured by Envision (PerkinElmer).

Test [4] addresses T1, RORγt. Description: Jurkat reporter test (human IL-17 ROR response element luciferase). In kind it is cell-based. To be noted: test compound 3 μM; Jurkat cells transfected with IL-17 ROR response element luciferase reporter and RORγt vector; cultured overnight; read-out: luminescence level inhibitory rate. The protocol: The Jurkat cells used for the reporter test were cultured in a culture medium (RPMI (Invitrogen), 10% FCS (AusGeneX), 100 U/mL penicillin, 100 μg/mL streptomycin). On the day of the test, 4×10^7 cells were recovered by a centrifugal operation (1000 rpm, 5 min.) and suspended in PBS (phosphate buffered saline) (Invitrogen). Thereafter, the cells were recovered again by a centrifugal operation, and suspended in 2 mL of R buffer (NEON transfection kit, Invitrogen). Then, a reporter vector 53 μg wherein a human IL-17 ROR response element was inserted into the upstream of luciferase of pGL 4.28 (Promega), and a vector (27 μg) wherein RORγt sequence was inserted into the downstream of CMV promoter were added to the cell suspension. Gene transfer was performed by Electroporation apparatus (NEON, Invitrogen) under the conditions of pulse voltage 1350 V, interval 10 milliseconds, number of times 3. The cells after gene transfer were suspended in 40 mL of a reaction medium (RPMI, 10% Lipid reduced FCS (HyClone), 10 mM HEPES (pH 7.5), 100 U/mL penicillin, 100 μg/mL streptomycin, 5 μM lovastatin), and plated in a 96 well plate by 90 μL. A test compound diluted with the reaction medium was added by 10 μL, and the cells were cultured overnight in an incubator. Bright-Glo (Promega) was added by 100 μL, and the mixture was stirred at room temperature for 10 min, and the luminescence level was measured by Envision (PerkinElmer).
The results (luminescence level inhibitory rate at test compound 3 μM) measured by the above-mentioned method are shown in Table 4.

Test [5] has as its system Peripheral blood mononuclear cells (PBMC). As to the kind of experiment: Human PBMC IL17 production test. In kind it is cell-based. To be noted: 72 h; test compound 10 μM; human PBMC stimulated by anti-CD3/CD28 Dynabeads; 3 days; ELISA; read-out: inhibitory rate (IL-17A in culture supernatant, IL-17 production). The protocol:
Peripheral blood mononuclear cells (PBMC) collected from human peripheral blood by a density gradient centrifugation method were stimulated by Dynabeads (registered trade mark; anti-CD3/CD28 antibody) and cultured at 37° C. for 3 days. The compound was dissolved in DMSO and then added. After culture for 3 days under such conditions, the concentration of IL-17A in the culture supernatant obtained by centrifugation was measured by ELISA, and the activity of the compound on IL-17 production was evaluated.

`CC(C)(C)n1ncc(-c2nc(CC(=O)NCC3CCOCC3)cs2)c1-c1ccc(F)cc1` [Example 14, 2-{2-[1-tert-butyl-5-(4-fluorophenyl)-1H-pyrazol-4-yl]-1,3-thiazol-4-yl}-N-(tetrahydro-2H-pyran-4-ylmethyl)acetamide]: in test [1], the inhibition at 10 µM turned out to be 77%. Further, the inhibition at 1 µM in test [2] was 92%; in test [3], 109%. The inhibition at 3 µM in test [4] is 81%.
For `CN(Cc1ccncc1)C(=O)Cc1csc(-c2cnn(C(C)(C)C)c2-c2ccc(F)cc2)n1` [Example 18, 2-{2-[1-tert-butyl-5-(4-fluorophenyl)-1H-pyrazol-4-yl]-1,3-thiazol-4-yl}-N-methyl-N-(pyridin-4-ylmethyl)acetamide], in that order: 96.3%, 96.1%, 102% and 87.1%.
For `CC(C)(C)n1ncc(-c2nc(CC(=O)NCC3CCOCC3)cs2)c1-c1ccccc1` [Example 41], in that order: 92.6%, 94.6%, 101% and 82.1%.
As for `CC(C)(C)n1ncc(-c2nc(CC(=O)NCC3CCOCC3)cs2)c1-c1ccc(C#N)cc1` [Example 43, 2-{2-[1-tert-butyl-5-(4-cyanophenyl)-1H-pyrazol-4-yl]-1,3-thiazol-4-yl}-N-(tetrahydro-2H-pyran-4-ylmethyl)acetamide], in test [1], the inhibition at 10 µM is 78.6%. The inhibition at 1 µM in test [2] was 98.3%; in test [3], 101%. Besides, the inhibition at 3 µM in test [4] was found to be 94.2%.
Take `O=C(Cc1csc(-c2cnn(C3CCCCC3)c2-c2ccc(F)cc2)n1)NCC1CCOCC1` [Example 51, 2-{2-[1-cyclohexyl-5-(4-fluorophenyl)-1H-pyrazol-4-yl]-1,3-thiazol-4-yl}-N-(tetrahydro-2H-pyran-4-ylmethyl)acetamide]: the inhibition at 10 µM in test [1] was 86%. Moreover, the inhibition at 1 µM in test [2] amounted to 95.3%; in test [3] it was 78.6%. Further, the inhibition at 3 µM in test [4] stood at 94.9%.
For `CC(C)(C)n1ncc(-c2nc(CC(=O)NCc3cccnc3)cs2)c1-c1ccc(F)cc1` [Example 79, 2-{2-[1-tert-butyl-5-(4-fluorophenyl)-1H-pyrazol-4-yl]-1,3-thiazol-4-yl}-N-(pyridin-3-ylmethyl)acetamide], in that order: 69%, 95.4%, 99.8% and 85.7%.
In the same order, the values of `CCCN(Cc1ccccc1)C(=O)Cc1csc(-c2cnn(C(C)(C)C)c2-c2ccc(F)cc2)n1` [Example 97, N-benzyl-2-{2-[1-tert-butyl-5-(4-fluorophenyl)-1H-pyrazol-4-yl]-1,3-thiazol-4-yl}-N-propylacetamide] are 95%, 87.3%, 98.8% and 84.1%.
With `CC(C)(C)n1ncc(-c2nc(CC(=O)NCC3CCOCC3)cs2)c1-c1ccc(Cl)cc1` [Example 128, 2-{2-[1-tert-butyl-5-(4-chlorophenyl)-1H-pyrazol-4-yl]-1,3-thiazol-4-yl}-N-(tetrahydro-2H-pyran-4-ylmethyl)acetamide], the inhibition at 10 µM in test [1] amounted to 97.7%. Besides, the inhibition at 1 µM was 97.8% in test [2] and 101% in test [3]. The inhibition at 3 µM in test [4] was determined as 97.1%.
In the case of `CC(C)(C)n1ncc(-c2nc(CC(=O)NCC3CCOCC3)cs2)c1-c1cc2ccccc2s1` [Example 150, 2-{2-[5-(1-benzothiophen-2-yl)-1-tert-butyl-1H-pyrazol-4-yl]-1,3-thiazol-4-yl}-N-(tetrahydro-2H-pyran-4-ylmethyl)acetamide], the figures for the inhibition at 10 µM in test [1] and in test [5] were 97.7% and 92%, respectively. Besides, the inhibition at 1 µM turned out to be 98.7% in test [2] and 99.3% in test [3]. Besides, the inhibition at 3 µM in test [4] stood at 98.4%.
Take `COc1ccc(-c2c(-c3nc(CC(=O)NCC4CCOCC4)cs3)cnn2C(C)(C)C)cc1F` [Example 152, 2-{2-[1-tert-butyl-5-(3-fluoro-4-methoxyphenyl)-1H-pyrazol-4-yl]-1,3-thiazol-4-yl}-N-(tetrahydro-2H-pyran-4-ylmethyl)acetamide]: the inhibition at 10 µM in test [1] was determined as 91.2%; in test [5], 92%. In addition, the inhibition at 1 µM in test [2] came out at 95.9%; in test [3] it was 95.4%. In addition, the inhibition at 3 µM in test [4] was 96%.
Take `CC(C)(C)n1ncc(-c2nc(CC(=O)NCc3ccc(-n4ccnc4)cc3)cs2)c1-c1ccc(F)cc1` [Example 170, 2-{2-[1-tert-butyl-5-(4-fluorophenyl)-1H-pyrazol-4-yl]-1,3-thiazol-4-yl}-N-[4-(1H-imidazol-1-yl)benzyl]acetamide]: the inhibition at 1 µM in test [2] came out at 86.5%; in test [3], 100%. The inhibition at 3 µM in test [4] was 94.4%.
